Laboratory results: DBAASP
In brackets after ≈: the same amount, converted by molar mass. Several values for one entry are separate records, joined by “and”; a condition that tells them apart may be missing. Equal entries are not always repeated. Each block holds one compound with its values, some of them ahead of it.

How the values were obtained:
Test in all cases: ≥ marks a high value that may be exact or a test limit, other limits are often not marked, values filed in µg/mL are converted to µM
[1] = system: Proteus mirabilis ATCC 35659
[2] = system: Pseudomonas aeruginosa PAO1
[3] = system: Enterococcus faecium 5F-10
[4] = system: Enterococcus faecalis 1F-1
[5] = system: Salmonella enterica ATCC H9812
[6] = system: Bacillus licheniformis ATCC 14580
[7] = system: Bacillus amyloliquefaciens ATCC 23842
[8] = system: Staphylococcus aureus ATCC 29213
[9] = system: Escherichia coli ATCC 25922
[10] = system: Bacillus cereus ATCC 14579
[11] = system: Bacillus subtilis ATCC 6051
[12] = system: Candida albicans ATCC 90028
[13] = system: Trichophyton rubrum ATCC 28189
[14] = system: Staphylococcus epidermidis ATCC 12228
[15] = system: Staphylococcus aureus ATCC 25923
[16] = system: Bacillus megaterium NRRL B-4272
[17] = system: Staphylococcus aureus ATCC 9144
[18] = system: Escherichia coli ATCC 10536
[19] = system: Bacillus subtilis ATCC 6633
[20] = system: Staphylococcus aureus ATCC 43300
[21] = system: Klebsiella pneumoniae ATCC 700603
[22] = system: Cryptococcus neoformans var. grubii H99
[23] = system: Pseudomonas aeruginosa ATCC 27853
[24] = system: Acinetobacter baumannii ATCC 19606
Escherichia coli K-12 = system: Escherichia coli K-12
[25] = system: Staphylococcus aureus JE2
[26] = system: Klebsiella pneumoniae NBRC 3512
[27] = system: Staphylococcus epidermidis
[28] = system: Escherichia coli NBRC 3972
[29] = system: Pseudomonas aeruginosa ATCC BAA-2111
[30] = system: Proteus vulgaris NBRC 3045
[31] = system: Escherichia coli DH5alpha
[32] = system: Salmonella enterica subsp. enterica NBRC 100797
Staphylococcus aureus = system: Staphylococcus aureus
[33] = system: Staphylococcus aureus NBRC 13276
[34] = system: Pseudomonas aeruginosa NBRC 13275
[35] = system: Trichophyton mentagrophytes
Aspergillus fumigatus = system: Aspergillus fumigatus
[36] = system: Pseudomonas aeruginosa ATCC BAA-427
Sporothrix schenckii = system: Sporothrix schenckii
[37] = system: Candida parapsilosis ATCC 22019
Bacillus cereus = system: Bacillus cereus
[38] = system: Klebsiella pneumoniae ATCC 27736
[39] = system: Escherichia coli ATCC 9637
Escherichia coli MG1655 = system: Escherichia coli MG1655
[40] = system: Bacillus subtilis MTCC 14416
[41] = system: Staphylococcus aureus MTCC 9542
[42] = system: Enterococcus faecalis ATCC 29212
Vibrio cholerae = system: Vibrio cholerae

Structure (SMILES): CC(C)C[C@H](NC(=O)[C@H](CC(C)C)NC(=O)[C@@H](N)CCC(=O)O)C(=O)N[C@@H](CO)C(=O)N[C@@H](CCCN=C(N)N)C(=O)N[C@H](C(=O)O)C(C)C [ELLSRV]
MIC [1]: ≥ 179 µM
MIC [2]: > 179 µM
MIC [3]: ≥ 179 µM
MIC [4]: ≥ 179 µM
MIC [5]: ≥ 89.4 µM
MIC [6]: ≥ 179 µM
MIC [7]: ≥ 179 µM
MIC [8]: > 179 µM
MIC [9]: 89.4 µM (≈ 64 µg/mL)
MIC [10]: ≥ 179 µM
MIC [11]: ≥ 179 µM

Structure (SMILES): CC[C@H](C)[C@H](NC(=O)[C@@H](NC(=O)[C@H](CO)NC(=O)[C@H](C)NC(=O)[C@@H](NC(=O)[C@H](CCCN=C(N)N)NC(=O)[C@H](CCCN=C(N)N)NC(=O)[C@@H](NC(=O)[C@@H](NC(=O)[C@H](CC(=O)O)NC(=O)[C@H](Cc1ccccc1)NC(=O)[C@H](CC(C)C)NC(=O)CN)C(C)C)[C@@H](C)CC)C(C)C)C(C)C)C(=O)NCC(=O)NCC(=O)N[C@@H](CC(C)C)C(=O)O [GLFDVIRRVASVIGGL]
MIC [12]: 9.57 µM (≈ 16 µg/mL)
MIC [20]: 9.57 µM (≈ 16 µg/mL)
MIC [21]: > 19.1 µM
MIC [22]: 9.57 µM (≈ 16 µg/mL)
MIC [23]: > 19.1 µM
MIC [24]: 19.1 µM (≈ 32 µg/mL)
MIC [9]: 19.1 µM (≈ 32 µg/mL)
MIC (Escherichia coli K-12): 19.1 µM (≈ 32 µg/mL)
MIC [25]: 9.57 µM (≈ 16 µg/mL)

Structure (SMILES): CC[C@H](C)[C@@H]1NC(=O)[C@H](CCCCN)NC(=O)[C@@H](NC(=O)[C@H](CC(C)C)NC(=O)[C@@H](NC(=O)[C@H](CCC(N)=O)NC(=O)[C@@H]2CCCN2C(=O)[C@H](CC(C)C)NC(=O)[C@H](Cc2ccccc2)NC(=O)[C@H](CC(N)=O)NC(=O)[C@H](C)NC(=O)[C@H](C)NC(=O)[C@H](CC(C)C)NC(=O)CNC(=O)[C@H](C)NC(=O)[C@@H](NC(=O)[C@@H](N)CCCN=C(N)N)[C@@H](C)CC)[C@@H](C)CC)CSSC[C@@H](C(N)=O)NC(=O)[C@H](CCCCN)NC(=O)[C@H](CCCN=C(N)N)NC(=O)[C@H](C)NC1=O [RIAGLAANFLPQILCKIARKC]
MIC [20]: 10.9 µM (≈ 25 µg/mL)
MIC (Escherichia coli MG1655): 10.9 µM (≈ 25 µg/mL)
MIC [40]: 21.7 µM (≈ 49.9 µg/mL)
MIC [41]: 10.9 µM (≈ 25 µg/mL)
MIC [42]: 21.7 µM (≈ 49.9 µg/mL)
MIC [23]: > 43.5 µM
MIC (Vibrio cholerae): 5.44 µM (≈ 12.5 µg/mL)

Next, values leading:

MIC [12]: ≥ 32 µM
MIC [13]: ≥ 256 µM
MIC [14]: 21.3 µM (≈ 54.3 µg/mL)
MIC [15]: 32 µM (≈ 81.5 µg/mL)
Structure (SMILES): CC[C@H](C)[C@H](NC(=O)[C@H](Cc1c[nH]c2ccccc12)NC(=O)[C@H](CCCCN)NC(=O)[C@H](Cc1cnc[nH]1)NC(=O)[C@H](Cc1ccccc1)NC(=O)[C@H](CCC(=O)O)NC(=O)[C@H](CCCN=C(N)N)NC(=O)[C@H](CC(C)C)NC(=O)[C@@H](N)Cc1ccccc1)C(=O)N[C@@H](CCC(=O)O)C(=O)N[C@@H](CCCN=C(N)N)C(=O)N[C@H](C(=O)N[C@H](C(=O)NCC(=O)N[C@@H](Cc1c[nH]c2ccccc12)C(=O)N[C@@H](CC(C)C)C(=O)NCC(=O)N[C@@H](CCCCN)C(=O)N[C@H](C(=O)N[C@@H](Cc1ccccc1)C(N)=O)C(C)C)C(C)C)C(C)C [FLREFHKWIERVVGWLGKVF]

MIC [16]: 12 µM (≈ 29.6 µg/mL)
MIC [17]: ≥ 40 µM
MIC [18]: 5 µM (≈ 12.3 µg/mL)
MIC [19]: 10 µM (≈ 24.7 µg/mL)
Structure (SMILES): CC[C@H](C)[C@H](NC(=O)[C@H](Cc1ccccc1)NC(=O)[C@H](CCCCN)NC(=O)[C@H](CCCCN)NC(=O)[C@H](Cc1ccccc1)NC(=O)[C@H](CO)NC(=O)[C@H](Cc1cnc[nH]1)NC(=O)[C@H](CC(C)C)NC(=O)[C@H](C)NC(=O)[C@H](CCCCN)NC(=O)CNC(=O)CNC(=O)CN)C(=O)N[C@@H](CCCCN)C(=O)N[C@@H](C)C(=O)N[C@@H](Cc1ccccc1)C(=O)N[C@H](C(=O)NCC(=O)N[C@@H](CCC(=O)O)C(=O)N[C@H](C(=O)N[C@@H](CCSC)C(=O)N[C@@H](CC(N)=O)C(=O)N[C@@H](CO)C(N)=O)[C@@H](C)CC)C(C)C [GGGKALHSFKKFIKAFVGEIMNS]

MIC [26]: 0.716 µM (≈ 1.6 µg/mL)
MIC [27]: 1.56 µM (≈ 3.48 µg/mL)
MIC [28]: 3.12 µM and 3.1 µM
MIC [29]: 1.39 µM (≈ 3.1 µg/mL)
MIC [30]: ≥ 100 µM
MIC [31]: 3.12 µM and 3.1 µM
MIC [32]: 1.6 µM (≈ 3.57 µg/mL)
MIC (Staphylococcus aureus): 12.5 µM (≈ 27.9 µg/mL)
MIC [33]: 5.59 µM (≈ 12.5 µg/mL)
MIC [34]: 1.56 µM and 0.716 µM
Structure (SMILES): CC(C)C[C@H](NC(=O)[C@H](CCCCN)NC(=O)CNC(=O)[C@H](C)NC(=O)[C@H](CCCCN)NC(=O)[C@H](CCCCN)NC(=O)[C@H](CC(C)C)NC(=O)[C@H](CC(C)C)NC(=O)[C@H](CCCCN)NC(=O)CNC(=O)[C@H](C)NC(=O)[C@H](CCCCN)NC(=O)[C@H](CCCCN)NC(=O)[C@H](CC(C)C)NC(=O)[C@H](CC(C)C)NC(=O)[C@@H](N)CCCCN)C(=O)N[C@@H](CC(C)C)C(=O)N[C@@H](CCCCN)C(=O)N[C@@H](CCCCN)C(=O)N[C@@H](C)C(=O)NCC(N)=O [KLLKKAGKLLKKAGKLLKKAG]

MIC [35]: 3.16 µM (≈ 6.25 µg/mL)
MIC (Aspergillus fumigatus): 3.16 µM (≈ 6.25 µg/mL)
MIC [36]: 12.6 µM (≈ 25 µg/mL)
MIC (Sporothrix schenckii): 1.59 µM (≈ 3.15 µg/mL)
MIC [37]: 3.16 µM (≈ 6.25 µg/mL)
MIC (Bacillus cereus): 1.59 µM (≈ 3.15 µg/mL)
MIC [38]: 1.59 µM (≈ 3.15 µg/mL)
MIC [15]: 0.789 µM (≈ 1.56 µg/mL)
MIC [39]: 12.6 µM (≈ 25 µg/mL)
Structure (SMILES): CC(C)C[C@H](NC(=O)[C@H](CC(C)C)NC(=O)[C@H](CCCN=C(N)N)NC(=O)[C@H](CCCN=C(N)N)NC(=O)[C@H](CC(C)C)NC(=O)[C@H](Cc1c[nH]c2ccccc12)NC(=O)[C@H](CCCN=C(N)N)NC(=O)[C@H](CC(C)C)NC(=O)[C@H](CC(C)C)NC(=O)[C@H](CCCN=C(N)N)NC(=O)[C@H](CCCN=C(N)N)NC(=O)[C@@H](N)CC(C)C)C(=O)N[C@@H](CCCN=C(N)N)C(=O)N[C@@H](CCCN=C(N)N)C(=O)O [LRRLLRWLRRLLRR]
